Reference: ChEMBL document CHEMBL1201862, “PubChem BioAssay data set” (2004)
Blank lines part the entries; values can stand above or below the compound they belong to. Active and inactive are the calls of the source. For most assays here, no stated cut-off is given here; in the data, active = IC50 of 10 µM or less and inactive = more.

Assays:
Interleukin-8 [1] = molecular target: T1, Interleukin-8 (Homo sapiens, UniProt P10145); assay: Dose Response confirmation of uHTS small molecule hits for cystic fibrosis induced NFkb Inhibitors in a PAF-induced IL8 counterscreen.; type: functional; details: read-out: IC50_Mean
T1 sequence (P10145 whole entry): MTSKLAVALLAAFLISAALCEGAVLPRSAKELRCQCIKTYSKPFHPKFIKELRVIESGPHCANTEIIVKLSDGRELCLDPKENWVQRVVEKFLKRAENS

[2] = molecular target: T2, Microphthalmia-associated transcription factor (Homo sapiens, UniProt O75030); assay: reducers of TRPM1 reporter luminescence, concentration series – cell-based, SK-MEL-5, cherry-picked, set 3, MITF inhibitor project, dose response (AID 493073); type: functional;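 further: SK-MEL-5 melanoma cells with luciferase driven by the MITF target TRPM1 promoter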
T2 sequence (O75030 whole entry): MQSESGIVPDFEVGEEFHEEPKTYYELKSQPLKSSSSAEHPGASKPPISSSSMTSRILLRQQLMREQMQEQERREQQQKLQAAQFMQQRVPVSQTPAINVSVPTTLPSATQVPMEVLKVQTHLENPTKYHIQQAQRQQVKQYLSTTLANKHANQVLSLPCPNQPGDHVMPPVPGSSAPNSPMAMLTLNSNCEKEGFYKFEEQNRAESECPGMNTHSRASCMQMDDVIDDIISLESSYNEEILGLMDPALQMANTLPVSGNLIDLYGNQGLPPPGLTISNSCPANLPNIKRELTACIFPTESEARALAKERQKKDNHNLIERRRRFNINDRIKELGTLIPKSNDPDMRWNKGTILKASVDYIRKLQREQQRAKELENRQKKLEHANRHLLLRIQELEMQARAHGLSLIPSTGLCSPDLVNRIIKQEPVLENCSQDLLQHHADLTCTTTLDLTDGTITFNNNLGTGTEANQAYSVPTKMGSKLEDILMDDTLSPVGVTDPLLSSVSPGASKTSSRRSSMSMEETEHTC

[3] = molecular target: Sphingosine 1-phosphate receptor 4 (Homo sapiens, UniProt O95977); assay: Fluorescence dose response cell-based high throughput screening assay for antagonists of the Sphingosine 1-Phosphate Receptor 4 (S1P4). [Related pubchem assays: 1524 (Confirmation in triplicates.), 1510 (Primary screen.)]; type: functional
Sphingosine 1-phosphate receptor 4, sequence (O95977 whole entry): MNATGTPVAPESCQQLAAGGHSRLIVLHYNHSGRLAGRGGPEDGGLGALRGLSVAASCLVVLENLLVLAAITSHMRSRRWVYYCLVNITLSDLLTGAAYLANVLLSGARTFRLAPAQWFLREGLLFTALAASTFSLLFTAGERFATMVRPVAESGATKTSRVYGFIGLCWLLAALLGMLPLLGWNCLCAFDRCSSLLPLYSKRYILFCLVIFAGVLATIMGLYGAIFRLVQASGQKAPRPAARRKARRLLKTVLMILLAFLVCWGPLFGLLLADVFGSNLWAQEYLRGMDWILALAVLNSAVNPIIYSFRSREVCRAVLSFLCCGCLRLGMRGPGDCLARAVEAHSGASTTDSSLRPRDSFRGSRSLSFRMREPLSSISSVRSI

Interleukin-8 [4] = molecular target: T1, Interleukin-8; assay: Dose Response confirmation of uHTS small molecule hits for cystic fibrosis induced NFkb Inhibitors in a TNFa-induced IL8 counterscreen.; type: functional; details: read-out: IC50_Mean
[5] = molecular target: T3, High affinity choline transporter 1 (Homo sapiens, UniProt Q9GZV3); assay: human choline transporter blockers, potency – cell-based, 5-point CRC, membrane potential dye, dose response (AID 504840); type: functional
T3 sequence (Q9GZV3 whole entry): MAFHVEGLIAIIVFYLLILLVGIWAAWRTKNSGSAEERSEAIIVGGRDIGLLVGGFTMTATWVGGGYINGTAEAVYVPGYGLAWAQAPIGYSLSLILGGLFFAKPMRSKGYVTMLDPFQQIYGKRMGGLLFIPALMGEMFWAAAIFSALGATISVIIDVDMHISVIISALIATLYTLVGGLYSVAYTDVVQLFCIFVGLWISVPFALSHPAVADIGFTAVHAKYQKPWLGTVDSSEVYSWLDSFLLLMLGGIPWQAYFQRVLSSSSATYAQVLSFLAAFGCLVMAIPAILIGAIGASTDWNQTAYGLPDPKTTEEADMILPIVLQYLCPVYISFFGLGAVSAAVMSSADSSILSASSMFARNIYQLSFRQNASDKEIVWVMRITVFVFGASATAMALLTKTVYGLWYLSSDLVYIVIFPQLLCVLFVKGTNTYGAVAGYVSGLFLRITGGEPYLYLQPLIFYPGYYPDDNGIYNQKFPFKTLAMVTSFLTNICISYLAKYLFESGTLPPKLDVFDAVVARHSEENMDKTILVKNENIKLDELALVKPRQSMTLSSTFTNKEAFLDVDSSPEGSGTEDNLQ

[6] = molecular target: Sphingosine 1-phosphate receptor 1 (Homo sapiens, UniProt P21453); type: functional;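 further: Tango beta-arrestin reporter U2OS cells stimulated with S1P near its EC80; inhibitor potency meaning antagonism of receptor activation by the natural agonist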
Sphingosine 1-phosphate receptor 1, sequence (P21453 whole entry): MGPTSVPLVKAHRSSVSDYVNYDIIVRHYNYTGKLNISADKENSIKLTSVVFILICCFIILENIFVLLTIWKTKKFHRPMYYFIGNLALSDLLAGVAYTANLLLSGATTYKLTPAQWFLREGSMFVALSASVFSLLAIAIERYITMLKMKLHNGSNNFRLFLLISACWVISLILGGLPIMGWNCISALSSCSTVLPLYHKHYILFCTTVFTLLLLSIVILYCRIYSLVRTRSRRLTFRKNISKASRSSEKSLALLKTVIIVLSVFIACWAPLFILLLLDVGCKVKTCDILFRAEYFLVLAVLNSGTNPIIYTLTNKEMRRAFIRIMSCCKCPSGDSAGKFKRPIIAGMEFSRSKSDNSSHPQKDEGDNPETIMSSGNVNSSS

[7] = molecular target: T4, Neuropeptides B/W receptor type 1 (Homo sapiens, UniProt P48145); assay: Fluorescence-based dose response cell-based high throughput screening assay to identify antagonists of the G-protein coupled receptor 7 (GPR7). [Related pubchem assays: 1952 (Screening assay (GPR7 antagonists).), 1880 (Summary AID.)]; type: functional
T4 sequence (P48145 whole entry): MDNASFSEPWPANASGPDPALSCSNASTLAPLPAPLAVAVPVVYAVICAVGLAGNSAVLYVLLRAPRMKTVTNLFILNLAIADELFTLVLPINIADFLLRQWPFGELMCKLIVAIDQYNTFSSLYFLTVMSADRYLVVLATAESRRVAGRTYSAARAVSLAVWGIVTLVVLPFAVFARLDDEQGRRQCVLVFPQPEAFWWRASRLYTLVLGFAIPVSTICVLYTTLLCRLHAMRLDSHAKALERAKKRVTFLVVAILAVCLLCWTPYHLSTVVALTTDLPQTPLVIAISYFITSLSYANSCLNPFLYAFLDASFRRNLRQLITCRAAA

[8] = molecular target: Melanin-concentrating hormone receptor 1 (Homo sapiens, UniProt Q99705); assay: Fluorescence-based counterscreen for antagonists of the G-protein coupled receptor 7 (GPR7): cell-based high throughput dose response assay to identify antagonists of the melanin-concentrating hormone receptor 1 (MCHR1).; type: functional
Melanin-concentrating hormone receptor 1, sequence (Q99705 whole entry): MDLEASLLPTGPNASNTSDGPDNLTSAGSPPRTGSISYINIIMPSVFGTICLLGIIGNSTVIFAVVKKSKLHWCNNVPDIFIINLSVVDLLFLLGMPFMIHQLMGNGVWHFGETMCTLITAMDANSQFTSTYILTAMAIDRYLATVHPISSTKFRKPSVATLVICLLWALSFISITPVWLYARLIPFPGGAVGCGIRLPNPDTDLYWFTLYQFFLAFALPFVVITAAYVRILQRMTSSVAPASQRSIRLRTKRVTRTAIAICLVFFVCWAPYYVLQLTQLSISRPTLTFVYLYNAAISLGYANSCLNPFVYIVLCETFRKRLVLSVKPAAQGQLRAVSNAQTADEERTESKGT

[9] = molecular target: T5, Neuropeptide Y receptor type 1 (Homo sapiens, UniProt P25929); assay: IC50 of human NPY-Y1 blockers – cell-based, dose response (AID 1277); type: functional
T5 sequence (P25929 whole entry): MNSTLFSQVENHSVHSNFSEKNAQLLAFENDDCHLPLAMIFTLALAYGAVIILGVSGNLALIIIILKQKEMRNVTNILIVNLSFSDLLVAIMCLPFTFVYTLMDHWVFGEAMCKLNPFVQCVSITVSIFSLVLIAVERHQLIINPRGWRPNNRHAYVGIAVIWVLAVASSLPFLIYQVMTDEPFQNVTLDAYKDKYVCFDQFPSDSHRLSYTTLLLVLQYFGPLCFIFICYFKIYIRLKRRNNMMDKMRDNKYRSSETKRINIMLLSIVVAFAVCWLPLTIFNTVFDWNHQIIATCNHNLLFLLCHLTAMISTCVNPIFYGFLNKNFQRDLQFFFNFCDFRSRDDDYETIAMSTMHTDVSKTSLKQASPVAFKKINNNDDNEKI

[10] = molecular target: T6, Neuropeptide Y receptor type 2 (Homo sapiens, UniProt P49146); assay: IC50 for human NPY-Y2 blockade – cell-based, counter-screen for NPY-Y1 antagonist project, dose response (AID 1278); type: functional
T6 sequence (P49146 whole entry): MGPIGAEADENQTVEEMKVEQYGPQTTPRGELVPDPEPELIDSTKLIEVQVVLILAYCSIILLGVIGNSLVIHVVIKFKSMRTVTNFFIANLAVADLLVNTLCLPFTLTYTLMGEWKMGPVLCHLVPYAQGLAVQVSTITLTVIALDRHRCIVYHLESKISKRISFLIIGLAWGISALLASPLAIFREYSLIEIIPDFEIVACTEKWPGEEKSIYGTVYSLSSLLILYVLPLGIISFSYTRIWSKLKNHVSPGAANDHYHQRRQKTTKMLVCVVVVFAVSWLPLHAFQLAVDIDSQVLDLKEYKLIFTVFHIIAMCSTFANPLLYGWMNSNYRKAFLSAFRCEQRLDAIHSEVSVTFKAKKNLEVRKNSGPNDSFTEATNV

Estrogen receptor = molecular target: T7, Estrogen receptor (Homo sapiens, UniProt P03372); assay: ERα coactivator recruitment enhancers – biochemical, TR-FRET, ERα LBD, dose response (AID 737)
T7 sequence (P03372 whole entry): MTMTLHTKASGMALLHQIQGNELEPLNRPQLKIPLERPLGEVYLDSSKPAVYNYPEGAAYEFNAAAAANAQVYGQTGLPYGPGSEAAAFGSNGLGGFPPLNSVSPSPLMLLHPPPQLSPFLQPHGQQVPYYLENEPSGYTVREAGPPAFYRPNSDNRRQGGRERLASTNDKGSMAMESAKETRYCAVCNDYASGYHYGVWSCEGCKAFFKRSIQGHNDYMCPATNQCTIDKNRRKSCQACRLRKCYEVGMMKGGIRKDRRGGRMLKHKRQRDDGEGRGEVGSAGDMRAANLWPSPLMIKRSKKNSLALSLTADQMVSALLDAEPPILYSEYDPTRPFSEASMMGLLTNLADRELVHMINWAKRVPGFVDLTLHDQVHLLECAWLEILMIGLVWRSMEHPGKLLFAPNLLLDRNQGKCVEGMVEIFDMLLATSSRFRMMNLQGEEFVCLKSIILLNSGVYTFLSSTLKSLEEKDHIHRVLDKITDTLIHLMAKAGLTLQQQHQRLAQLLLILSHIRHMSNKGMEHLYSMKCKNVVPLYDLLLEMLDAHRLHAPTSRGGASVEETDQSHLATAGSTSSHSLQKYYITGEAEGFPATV

IC50 (Interleukin-8 [1]): 0.967 µM (active)
AC50 [2]: 10.9 µM (active)
IC50 [3]: 2.34 µM (active)
IC50 (Interleukin-8 [4]): 43 µM (inactive)
IC50 [5]: 7.81 µM (active)
IC50 [6]: 9.72 µM (active)
Structure (SMILES): CN(CCC#N)C(=O)COC(=O)c1ccccc1C(=O)c1ccc(Cl)c([N+](=O)[O-])c1

IC50 [7]: > 43.8 µM (not active)
IC50 [8]: > 43.8 µM (not active)
IC50 [9]: > 35 µM (not active)
IC50 [10]: > 35 µM (not active)
Structure (SMILES): COc1ccc(-c2noc(CN3CCCCC3c3nccn3C)n2)cc1 (stereo unspecified)

EC50 (Estrogen receptor): 23.5 µM (active)
Structure (SMILES): O=C1c2ccccc2C(=O)N1CCCc1nc2ccccc2c(=O)n1CCCn1ccnc1
